The values below come from PubChem BioAssay AID1195 (EPA DSSTox, 2008).

For this data set, the system named is human maximum recommended daily dose, FDA database. The data set can be described thus: DSSTox (FDAMDD) FDA Maximum (Recommended) Daily Dose Database. The following applies: stronger effect = lower value. In outline:
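MRDD values come from clinical trials with daily oral dosing, usually for 3–12 months, for the average adult, in mg/day converted to mg/kg-bw/day assuming 60 kg. Antineoplastic mg/m2 doses are divided by 37. Activity score maps log10(1/MRDD mmol) onto 1–100.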

The mark [1] stands for this setting: TherapeuticCategory: antibacterial.
The mark [2] stands for this setting: TherapeuticCategory: anticholinergic.
[3] abbreviates: TherapeuticCategory: diagnostic aid.
Where [4] appears, read: TherapeuticCategory: glucocorticoid.
Where [5] appears, read: TherapeuticCategory: narcotic analgesic.
Setting [6] is: TherapeuticCategory: antidepressant.

Molecules are shown by their SMILES.

Turning to `COC1=C(C(=O)O)N2C(=O)[C@@H](NC(=O)[C@H](N)C3=CCC=CC3)[C@H]2SC1`, the maximum recommended daily dose (mmol/kg-bw/day) under setting [1] was 0.0911.
Consider `CC(C)(N)Cc1ccccc1`, for which the maximum recommended daily dose (mmol/kg-bw/day) (TherapeuticCategory: anorexic) is 0.00419.
Take `CCN(CC)CC#CCOC(=O)C(O)(c1ccccc1)C1CCCCC1` (stereo unspecified): the maximum recommended daily dose (mmol/kg-bw/day) under setting [2] was 0.000932.
Take `CC(C)(N)Cc1ccccc1Cl`: the maximum recommended daily dose (mmol/kg-bw/day) (TherapeuticCategory: anorexic) is 0.00454.
Regarding `COc1ccc(NS(=O)(=O)c2ccc(N)cc2)nn1`, under setting [1], the maximum recommended daily dose (mmol/kg-bw/day) was 0.0892.
As to `CCCC1C(=O)N2C(N(C)C)=Nc3ccc(C)cc3N2C1=O` (stereo unspecified), the maximum recommended daily dose (mmol/kg-bw/day) (TherapeuticCategory: analgesic, anti inflammatory) was 0.0892.
In the case of `CCn1cc(C(=O)O)c(=O)c2ccc(C)nc21`, the maximum recommended daily dose (mmol/kg-bw/day) under setting [1] was 0.287.
Take `OCC(O)CO`: the maximum recommended daily dose (mmol/kg-bw/day) under setting [3] is 10.8.
Turning to `CC[N+]1(C)CCCC(OC(=O)C(O)(c2ccccc2)c2ccccc2)C1` (stereo unspecified), the maximum recommended daily dose (mmol/kg-bw/day) under setting [2] is 0.000576.
With `Cc1cn([C@H]2C[C@H](N=[N+]=[N-])[C@@H](CO)O2)c(=O)[nH]c1=O`, the maximum recommended daily dose (mmol/kg-bw/day) (TherapeuticCategory: antiviral) is 0.0374.
With `CC(=O)c1ccc2c(c1)N(CCCN1CCN(CCO)CC1)c1ccccc1S2`, the maximum recommended daily dose (mmol/kg-bw/day) (TherapeuticCategory: antipsychotic) was 0.0243.
As to `CN(C)C(=N)N=C(N)N`, the maximum recommended daily dose (mmol/kg-bw/day) (TherapeuticCategory: antidiabetic) is 0.387.
Turning to `CCN(CC)CCOC(=O)C1(C2CCCCC2)CCCCC1`, the maximum recommended daily dose (mmol/kg-bw/day) under setting [2] was 0.0043.
For the compound `CC(=O)OCC(=O)[C@@]1(OC(=O)C(C)C)[C@@H](C)C[C@H]2[C@@H]3CCC4=CC(=O)C=C[C@]4(C)[C@@]3(F)[C@@H](O)C[C@@]21C`, under setting [4], the maximum recommended daily dose (mmol/kg-bw/day) is 0.000297.
Take `COc1cc(NC(C)CCCN)c2ncccc2c1` (stereo unspecified): under “TherapeuticCategory: antimalarial”, the maximum recommended daily dose (mmol/kg-bw/day) was 0.00289.
As to `Oc1ccc2c3c1O[C@H]1[C@@H](O)CC[C@@]4(O)[C@@H](C2)N(CC2CCC2)CC[C@]314`, under setting [5], the maximum recommended daily dose (mmol/kg-bw/day) is 0.0028.
With `N[C@@H]1C[C@H]1c1ccccc1`, the maximum recommended daily dose (mmol/kg-bw/day) under setting [6] was 0.00751.
In the case of `CN(C)CCCN1c2ccccc2C(C)(C)c2ccccc21`, the maximum recommended daily dose (mmol/kg-bw/day) under setting [6] is 0.034.
Turning to `O=C(O)Cn1cc(I)c(=O)c(I)c1`, the maximum recommended daily dose (mmol/kg-bw/day) under setting [3] is 0.196.
On to `Oc1ccc2c(c1)[C@@]13CCCC[C@@]1(O)[C@@H](C2)N(CC1CCC1)CC3`, for which, under setting [5], the maximum recommended daily dose (mmol/kg-bw/day) is 0.000815.
For the compound `CCN(CC)CCOC(=O)C(Cc1cccc2ccccc12)CC1CCCO1` (stereo unspecified), the maximum recommended daily dose (mmol/kg-bw/day) (TherapeuticCategory: vasodilator) is 0.0261.
Take `C[C@H](O)C(=O)Nc1c(I)c(C(=O)NC(CO)CO)c(I)c(C(=O)NC(CO)CO)c1I`: the maximum recommended daily dose (mmol/kg-bw/day) under setting [3] was 0.129.
As for `CCCCNc1cc(C(=O)O)cc(S(N)(=O)=O)c1Oc1ccccc1`, where the note is “TherapeuticCategory: diuretic”, the maximum recommended daily dose (mmol/kg-bw/day) was 0.000458.
As for `CC(C)(O)C(C)(O)c1ccc(Cl)cc1` (stereo unspecified), the maximum recommended daily dose (mmol/kg-bw/day) (TherapeuticCategory: anxiolytic, anticonvulsant) was 0.0932.
Regarding `CCC(c1ccccc1)c1c(O)c2ccccc2oc1=O` (stereo unspecified), the maximum recommended daily dose (mmol/kg-bw/day) (TherapeuticCategory: anticoagulant) is 0.00143.
Consider `COCc1c(C(C)C)nc(C(C)C)c(/C=C/[C@@H](O)C[C@@H](O)CC(=O)O)c1-c1ccc(F)cc1`, for which, under “TherapeuticCategory: antihyperlipoproteinemic”, the maximum recommended daily dose (mmol/kg-bw/day) is 1.09e-05.
Regarding `O=C(N[C@H](CO)[C@H](O)c1ccc([N+](=O)[O-])cc1)C(Cl)Cl`, the maximum recommended daily dose (mmol/kg-bw/day) (TherapeuticCategory: antibacterial, antirickettsial) was 0.309.
As for `CCC1(CC)C(=O)NC(=O)NC1=O`, the maximum recommended daily dose (mmol/kg-bw/day) (TherapeuticCategory: sedative, hypnotic) was 0.0543.
Regarding `O=C(O)CCC(=O)c1ccc(C2CCCCC2)c(Cl)c1`, for the setting “TherapeuticCategory: anti inflammatory”, the maximum recommended daily dose (mmol/kg-bw/day) was 0.0678.
With `CCCCCCC(C)(C)c1cc(O)c2c(c1)OC(C)(C)[C@@H]1CCC(=O)C[C@@H]21`, the maximum recommended daily dose (mmol/kg-bw/day) (TherapeuticCategory: antiemetic) is 0.000268.
As for `CC1CCC(C(C)C)C(O)C1` (stereo unspecified), the maximum recommended daily dose (mmol/kg-bw/day) (TherapeuticCategory: topical antipruritic) is 0.0128.
In the case of `CO[C@@]1(NC(=O)C2SC(=C(C(N)=O)C(=O)O)S2)C(=O)N2C(C(=O)O)=C(CSc3nnnn3C)CS[C@@H]21` (stereo partly specified), the maximum recommended daily dose (mmol/kg-bw/day) under setting [1] was 0.116.
As for `C[C@]12C=CC(=O)C=C1CC[C@@H]1[C@@H]2[C@@H](O)C[C@@]2(C)[C@H]1CC[C@]2(O)C(=O)CO`, the maximum recommended daily dose (mmol/kg-bw/day) under setting [4] was 0.00924.
`COc1cc(OC)c(C(=O)CCCN2CCCC2)c(OC)c1`: the maximum recommended daily dose (mmol/kg-bw/day) (TherapeuticCategory: peripheral vasodilator) is 0.0325.
As for `CN1CCC2=C(C1)C(c1ccccc1)c1ccccc12` (stereo unspecified), the maximum recommended daily dose (mmol/kg-bw/day) (TherapeuticCategory: antihistaminic) was 0.00957.
For the compound `O=P(O)(O)C(O)(Cc1cccnc1)P(=O)(O)O`, under “TherapeuticCategory: antiosteoporotic, Ca regulator, Ca channel blocker”, the maximum recommended daily dose (mmol/kg-bw/day) was 0.000294.
